Assay results published in US20240366779A1, “SELECTIVE DRUG RELEASE FROM INTERNALIZED CONJUGATES OF BIOLOGICALLY ACTIVE COMPOUNDS” (priority 2021, published 2024).
Numbered stars: 1 amine (or outer) side, 2 acyl side, 3 side chain; on linkers, the order of the positions; unused ones are H or OH. Square brackets hold non-standard residues; d marks the D form. Ends that are not written are not given here. Peptide text beside a SMILES is read from it. * marks the point of attachment. Dolaproine = CO[C@@H]([C@@H]1CCCN1)[C@@H](C)C(=O)O; Propanoyl(3-maleimido) = O=C1C=CC(=O)N1CCC(=O)*; Dil = CC[C@H](C)[C@H](NC)[C@@H](CC(=O)O)OC; Gla = N[C@@H](CC(C(=O)O)C(=O)O)C(=O)O; PABC = O=C(OCc1ccc(N[*:1])cc1)[*:2]; X1 = C[C@@H](N*)[C@@H](O)c1ccccc1; Met(O) = CS(=O)CC[C@H](N)C(=O)O; Cit = NC(=O)NCCC[C@H](N)C(=O)O; NMeV = CN[C@H](C(=O)O)C(C)C; Aib = CC(C)(N)C(=O)O

Legend:
HPAFII cells = assay: In vitro cytotoxicity of Ag1 ADCs (CellTiter-Glo, 96 h); type: cell-based; conditions: Tables 3a and 3b, in words
Description: In vitro cytotoxicity. The cytotoxicity of a tripeptide-based Antibody Drug Conjugate was measured by a cell proliferation assay employing the protocol described in Promega Corp. Technical Bulletin TB288; and Mendoza et al., 2002, Cancer Res. 62:5485-5488), the methods of which are specifically incorporated by reference herein. Briefly, an aliquot of 40 μl of cell culture containing about 400 cells in medium is deposited in each well of a 384-well, opaque-walled plate. A 10 μL aliquot of free drug or Ligand-Drug Conjugate is added to the experimental wells and incubated for 96 h and are then equilibrated to room temperature for approximately 30 minutes whereupon a volume of CellTiter-Glo™ reagent equal to the volume of cell culture medium present in each well is added. The contents are mixed for 2 minutes on an orbital shaker to induce cell lysis and the plate is incubated at room temperature for 10 minutes to stabilize the luminescence signal for recordation.
The italicized values in Tables 3, 3a, and 3b indicate the percentage of cells remaining after 96 hr incubation at the maximum concentration of drug added. For convenience the numbering for the library members of Tables 2 and 2A are retained for the corresponding Drug linker compounds that are incorporated into the ADC of Tables 3, 3a, and 3b.

[1] = tested on: CD30-expressing ALCL and HL cell lines (DEL, Karpas, KMH2, L428, L540cy); assay: In vitro cytotoxicity study of cAC10 ADCs (CellTiter-Glo, 96 hours); type: cell-based; conditions: FIG. 39A-E
Description: ALCL and HL cell lines (DEL, DELBVR8F9, Karpas, KMH2, L428, AND L540cy) were plated in 150 uL complete growth media in 96-well, clear-bottomed, black-walled tissue culture treated plates (Corning). Cell plates were placed at 37° C. and 5% CO2 overnight to allow cells to equilibrate. The ADCs were thawed, and 4×8-point serial dilutions were prepared in RPMI-1640+10% fetal bovine serum (FBS). Fifty uL of each dilution were then added to each cell plate in triplicate. Treated cells were incubated at 37° C. and 5% CO2 for 96 hours. Cell viability was assayed using CellTiter-Glo® Reagent (PROMEGA). Raw data were analyzed in Graphpad Prism (San Diego, CA) using a nonlinear, 4-parameter curve fit model [Y=Bottom+(Top−Bottom)/(1+10^((Log EC50−X)*HillSlope))].

neutrophil elastase = molecular target: T1, neutrophil elastase (Homo sapiens, UniProt P08246); assay: Neutrophil elastase assay of 8-load ADCs (QToF MS); type: biochemical; conditions: 8-load ADC, 37 C, 3 h; FIG. 6A
T1 sequence (P08246 30-267): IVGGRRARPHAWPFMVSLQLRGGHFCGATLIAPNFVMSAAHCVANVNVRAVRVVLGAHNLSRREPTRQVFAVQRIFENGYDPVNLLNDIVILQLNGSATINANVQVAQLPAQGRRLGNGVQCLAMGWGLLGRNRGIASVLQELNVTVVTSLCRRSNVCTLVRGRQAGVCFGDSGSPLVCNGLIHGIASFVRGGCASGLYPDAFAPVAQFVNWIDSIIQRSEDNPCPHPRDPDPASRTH
Description: To a mixture of 8-load ADC (5 ug), buffer (100 mM tris, 75 mM NaCl, pH 7.5; final concentration), and neutrophil elastase (100 ng) was added water to 20 uL. The reaction was incubated at 37 C for 3 h and then immediately analyzed by a QToF mass spectrometer.

[2] = tested on: neutrophils and reticulocytes (bone marrow); assay: In vivo bone marrow toxicity of non-binding h00 conjugates (neutrophil and reticulocyte counts, tolerability); conditions: rat, in words
From the text: Toxicity Determinations. Each tripeptide-based Drug Linker compound was reacted with a reduced non-binding antibody to provide a non-binding control ADC and injected i.v. into female Sprague Dawley rats at various concentrations. Animals were euthanized on day 4 or 28 post dose.
Having shown that ADC efficacy has been at least retained on replacing the dipeptide with most of the selected tripeptide sequences, differences in in vivo cytotoxicity against normal bone marrow tissue was explored by replacing the antibody targeting the Ag1 antigen with a non-binding control (h00) antibody. Each of the resulting non-targeting conjugates were then administered at 10 mg/Kg to rats, whose blood were analyzed at day 5 post-administration for neutrophil and reticulocyte counts as a proxy for bone marrow toxicity compared to sham treated animals. […]
A subset of non-targeting conjugates were administered at higher doses to rats to determine the impact on bone marrow depletion. Blood from the doses rats were analyzed at day 8 and day 22 post-administration for neutrophil (FIG. 2C) and reticulocyte (FIG. 3C) counts as a proxy for bone marrow toxicity compared to sham treated animals. […]

[3] = tested on: normal human bone marrow homogenate; assay: Fluorescence assay: proteolysis of tripeptide library by normal tissue homogenate; type: biochemical; conditions: Table 1A, normalized fluorescence at final time point (275-315 min)
Description: (§1) Fluorescence assay. To a 384 well plate was added a mixture of tumor or normal tissue homogenate and citrate buffer (100 mM, pH 4.5; 9 μL) followed by a fluorescently labelled library compound (1 μL; dissolved in 50% MeCN). The reaction was incubated at 37° C. and fluorescence (330 nm excitation, 450 nm emission) was detected several times over a 6-hr. period. The fluorescence fold change was determined by dividing the fluorescence value at each time point with the background fluorescence when no homogenate was added.
Tissue Homogenization. Normal tissue or tumor tissue from mouse xenografts were suspended in buffer (50 mM Tris, 150 mM KCl, pH 7.0) and added to a tube containing Matrix D lysing beads (mpbio). The tissue was homogenized with a Precellys™ 24 homogenizer. The homogenized sample was centrifuged at 1000×g for 10 min and the resulting supernatant was collected then frozen at −80° C. until further use.
The normalized normal tissue fluorescence values are from proteolysis by normal human bone marrow.
That value was then normalized for each peptide in each homogenate by dividing it by the average value for that homogenate. […] The normalized normal tissue values of Table 1 were similarly calculated using homogenized bone marrow.

[4] = tested on: tumor tissue homogenates from HPAF-II, Ramos, SK-Mel-5 and SU-DHL-4 xenograft models; assay: Fluorescence assay: proteolysis of tripeptide library by tumor tissue homogenate; type: biochemical, mouse; conditions: Table 1A; normalized fluorescence averaged across 4 tumor homogenates
Description: as §1
Tissue Homogenization. […]
The normalized fluorescence value for tumor homogenate proteolysis is an averaged value for tumor tissue homogenates derived from four mouse xenograft models.
That value was then normalized for each peptide in each homogenate by dividing it by the average value for that homogenate. […] The normalized tumor tissue values of Table 1 were then determined by averaging the normalized fluorescence value for each peptide across all 4 cancer homogenates that were tested. […] The normalized normal tissue values of Table 1 were similarly calculated using homogenized bone marrow. The Tumor/Normal ratios of Table 1A were determined by dividing the normalized tumor tissue values by the normalized normal tissue values.

Row | Compound | cytotoxicity relative to comparator dipeptide-based ADC (1) (HPAFII cells) | efficacy relative to comparator dipeptide-based ADC (1) (HPAFII cells) | other results
1 | CC[C@H](C)[C@@H]([C@@H](CC(=O)N1CCC[C@H]1[C@H](OC)[C@@H](C)C(=O)N[C@H](C)[C@@H](O)c1ccccc1)OC)N(C)C(=O)[C@@H](NC(=O)[C@H](C(C)C)N(C)C(=O)OCc1ccc(NC(=O)[C@H](CCCNC(N)=O)NC(=O)[C@H](C)NC(=O)[C@@H](CC(C)C)NC(=O)CCN2C(=O)C=CC2=O)cc1)C(C)C [Compound 8] ({Propanoyl(3-maleimido)}-[dL]A[Cit][PABC][NMeV]V[Dil][Dolaproine]-X1) | less cytotoxic | similarly efficacious | –
2 | CC[C@H](C)[C@@H]([C@@H](CC(=O)N1CCC[C@H]1[C@H](OC)[C@@H](C)C(=O)N[C@H](C)[C@@H](O)c1ccccc1)OC)N(C)C(=O)[C@@H](NC(=O)[C@H](C(C)C)N(C)C(=O)OCc1ccc(NC(=O)[C@H](CC(C(=O)O)C(=O)O)NC(=O)[C@H](C)NC(=O)[C@@H](CC(C)C)NC(=O)CCN2C(=O)C=CC2=O)cc1)C(C)C [Compound 26] ({Propanoyl(3-maleimido)}-[dL]A[Gla][PABC][NMeV]V[Dil][Dolaproine]-X1) | less cytotoxic | similarly efficacious | –
3 | CC[C@H](C)[C@@H]([C@@H](CC(=O)N1CCC[C@H]1[C@H](OC)[C@@H](C)C(=O)N[C@H](C)[C@@H](O)c1ccccc1)OC)N(C)C(=O)[C@@H](NC(=O)[C@@H](NC)C(C)C)C(C)C [SGN-1010, MMAE] (H-[NMeV]V[Dil][Dolaproine]-X1) | – | – | cytotoxic activity (cell viability) [1]: all cell lines are sensitive
4 | CC[C@H](C)[C@@H]([C@@H](CC(=O)N1CCC[C@H]1[C@H](OC)[C@@H](C)C(=O)N[C@H](C)[C@@H](O)c1ccccc1)OC)N(C)C(=O)[C@@H](NC(=O)[C@H](C(C)C)N(C)C(=O)OCc1ccc(NC(=O)[C@H](CCC(=O)O)NC(=O)[C@H](C)NC(=O)[C@@H](C)NC(=O)CCN2C(=O)C=CC2=O)cc1)C(C)C [Compound 22] ({Propanoyl(3-maleimido)}-[dA]AE[PABC][NMeV]V[Dil][Dolaproine]-X1) | less cytotoxic | similarly efficacious | –
5 | CC[C@H](C)[C@@H]([C@@H](CC(=O)N1CCC[C@H]1[C@H](OC)[C@@H](C)C(=O)N[C@H](C)[C@@H](O)c1ccccc1)OC)N(C)C(=O)[C@@H](NC(=O)[C@H](C(C)C)N(C)C(=O)OCc1ccc(NC(=O)[C@H](CCC(=O)O)NC(=O)[C@H](C)NC(=O)[C@@H](CC(C)C)NC(=O)CCN2C(=O)C=CC2=O)cc1)C(C)C [compound 5, mp-dLAE-PABC-MMAE] ({Propanoyl(3-maleimido)}-[dL]AE[PABC][NMeV]V[Dil][Dolaproine]-X1) | – | – | percentage of drug cleaved from the heavy chain by neutrophil elastase (neutrophil elastase): lower than that found for non-targeted ADC 37
6 | CC[C@H](C)[C@@H]([C@@H](CC(=O)N1CCC[C@H]1[C@H](OC)[C@@H](C)C(=O)N[C@H](C)[C@@H](O)c1ccccc1)OC)N(C)C(=O)[C@@H](NC(=O)[C@H](C(C)C)N(C)C(=O)OCc1ccc(NC(=O)[C@H](CCC(=O)O)NC(=O)[C@H](CO)NC(=O)[C@H](Cc2ccccc2)NC(=O)CCN2C(=O)C=CC2=O)cc1)C(C)C [Compound 30] ({Propanoyl(3-maleimido)}-FSE[PABC][NMeV]V[Dil][Dolaproine]-X1) | less cytotoxic | similarly efficacious | –
7 | CC[C@H](C)[C@@H]([C@@H](CC(=O)N1CCC[C@H]1[C@H](OC)[C@@H](C)C(=O)N[C@H](C)[C@@H](O)c1ccccc1)OC)N(C)C(=O)[C@@H](NC(=O)[C@H](C(C)C)N(C)C(=O)OCc1ccc(NC(=O)[C@H](CCC(=O)O)NC(=O)C(C)(C)NC(=O)[C@@H](CC(C)C)NC(=O)CCN2C(=O)C=CC2=O)cc1)C(C)C [compound 38] ({Propanoyl(3-maleimido)}-[dL][Aib]E[PABC][NMeV]V[Dil][Dolaproine]-X1) | less cytotoxic | less cytotoxic and efficacious | toxicity to bone marrow [2]: less toxic to rat bone marrow
8 | [dL]-Leu-[Met(O)] [DLeu-Leu-Met(O)] | – | – | Normalized Normal Tissue [3]: 0.66; Normalized Tumor Tissue [4]: 1.70
9 | CC[C@H](C)[C@@H]([C@@H](CC(=O)N1CCC[C@H]1[C@H](OC)[C@@H](C)C(=O)N[C@H](C)[C@@H](O)c1ccccc1)OC)N(C)C(=O)[C@@H](NC(=O)[C@H](C(C)C)N(C)C(=O)OCc1ccc(NC(=O)[C@H](CC(=O)O)NC(=O)[C@H](C)NC(=O)[C@@H](CC(C)C)NC(=O)CCN2C(=O)C=CC2=O)cc1)C(C)C [Compound 24] ({Propanoyl(3-maleimido)}-[dL]AD[PABC][NMeV]V[Dil][Dolaproine]-X1) | less cytotoxic | similarly efficacious | –
